Molecular target: human PTGES (Homo sapiens (Human), UniProt O14684)
Test: Human PTGES biochemical enzyme inhibition assay (conversion of PGH2 to PGE2, TR-FRET)
Conditions: Enzymatic conversion of PGH2 to PGE2; read-out: Human PTGES IC50
Procedure, shortened: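 FLAG-tagged human PTGES from Hi-5 insect cells preincubated 15–20 min with compound in pH 7.2 phosphate buffer with 2.5 mM reduced glutathione; reaction started with 8 nM PGH2 final, stopped with SnCl2/KF.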

Sequence of human PTGES (O14684 whole entry): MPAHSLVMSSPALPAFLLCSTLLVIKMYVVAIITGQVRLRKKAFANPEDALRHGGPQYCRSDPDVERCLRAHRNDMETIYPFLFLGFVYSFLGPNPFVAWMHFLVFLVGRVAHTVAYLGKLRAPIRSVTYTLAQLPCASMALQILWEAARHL

SMILES	IC50
Cc1c(NC(=O)C(c2ccc(-c3cncc(Cl)c3)c(F)c2)C2CCCC2)cccc1C(C)CC(=O)O (single isomer, unassigned; stereoisomer 1) [Example 126, 3-[3-({[4-(5-Chloropyridin-3-yl)-3-fluorophenyl](cyclopentyl)acetyl}amino)-2-methylphenyl]butanoic acid, Stereoisomer 1]	646 nM
Cc1c(CC(C)C(=O)O)cccc1NC(=O)C(c1ccc(-c2cncc(C(F)(F)F)c2)cc1)C1CCCC1 (single isomer, unassigned; stereoisomer 4) [Example 72, 3-{3-[(Cyclopentyl{4-[5-(trifluoromethyl)pyridin-3-yl]phenyl}acetyl)amino]-2-methylphenyl}-2-methylpropanoic acid, Stereoisomer 4]	71 nM
Cc1c(CCC(=O)O)cccc1NC(=O)C(c1ccc(-c2cccnc2F)cc1)C1CCCC1 (racemic) [Example 23, (R/S) 3-[3-({cyclopentyl[4-(2-fluoro-pyridin-3-yl)-phenyl]-acetyl}amino)-2-methyl-phenyl]propanoic acid]	5260 nM
Cc1c(CC(C)C(=O)O)cccc1NC(=O)C(c1ccc(-c2cncc(C(F)(F)F)c2)cc1)C1CCCC1 (single isomer, unassigned; stereoisomer 3) [Example 71, 3-{3-[(Cyclopentyl{4-[5-(trifluoromethyl)pyridin-3-yl]phenyl}acetyl)amino]-2-methylphenyl}-2-methylpropanoic acid, Stereoisomer 3]	15900 nM
Cc1ncc(-c2ccc(C(C(=O)Nc3cccc(C(C)CC(=O)O)c3C)C3CCCC3)cc2)cc1F (mixture of isomers) [Example 96, (3R/S)-3-[3-({(2R/S)-2-[4-(5-Fluoro-6-methylpyridin-3-yl)phenyl]-2-cyclopentylacetyl}amino)-2-methylphenyl]butanoic acid]	36.9 nM
Cc1c(CCC(=O)O)cccc1NC(=O)C(c1ccc(-c2cncc(OC(C)C)c2)c(F)c1)C1CCCC1 (single isomer, unassigned; (-)) [Example 199, (−) 3-[3-({cyclopentyl[3-fluoro-4-(5-isopropoxypyridin-3-yl)phenyl]acetyl}amino)-2-methylphenyl]propanoic acid, Single Enantiomer]	30.2 nM
Cc1ncc(-c2ccc(C(C(=O)Nc3cccc(C(C)CC(=O)O)c3C)C3CCCC3)cc2F)cc1Cl (mixture of isomers) [Example 120, (3R/S)-3-[3-({(2R/S)-2-[4-(5-Chloro-6-methylpyridin-3-yl)-3-fluorophenyl]-2-cyclopentylacetyl}amino)-2-methylphenyl]butanoic acid]	15.9 nM
Cc1c(CCC(=O)O)cccc1NC(=O)C(c1ccc(-c2cncc(CC(F)(F)F)c2)c(F)c1)C1CCCC1 (single isomer, unassigned; (-)) [Example 196, (−) 3-{3-[(cyclopentyl{3-fluoro-4-[5-(2,2,2-trifluoroethyl)pyridin-3-yl]phenyl}acetyl)amino]-2-methylphenyl}propanoic acid, Single Enantiomer]	74.7 nM
CCOc1cncc(-c2ccc(C(C(=O)Nc3cccc(CCC(=O)O)c3C)C3CCCC3)cc2)c1 (racemic) [Example 8, (R/S) 3-[3-({Cyclopentyl[4-(5-ethoxypyridin-3-yl)phenyl]acetyl}amino)-2-methylphenyl]propanoic acid]	160 nM
O=C(O)CCc1cccc(NC(=O)[C@@H](c2ccc(-c3cncc(C(F)(F)F)c3)cc2)C2CCCC2)c1C(F)(F)F [Example 215, 3-[3-{[(2R)-2-cyclopentyl-2-{4-[5-(trifluoromethyl)pyridin-3-yl]phenyl}acetyl]amino}-2-(trifluoromethyl)phenyl]propanoic acid]	258 nM
Cc1c(CCC(=O)O)cccc1NC(=O)C(c1ccc(-c2cncc(C3CC3)c2)cc1)C1CCCC1 (racemic) [Example 14, (R/S) 3-[3-({Cyclopentyl[4-(5-cyclopropylpyridin-3-yl)phenyl]acetyl}amino)-2-methylphenyl]propanoic acid]	115 nM
Cc1ncc(-c2ccc(C(C(=O)Nc3cccc(C(CC(=O)O)C4CC4)c3C)C3CCCC3)cc2)cc1Cl (mixture of isomers) [Example 108, (3R/S)-3-[3-({(2R/S)-2-[4-(5-chloro-6-methylpyridin-3-yl)phenyl]-2-cyclopentylacetyl}amino)-2-methylphenyl]-3-cyclopropylpropanoic acid]	31.9 nM
Cc1c(CCC(=O)O)cccc1NC(=O)[C@@H](c1ccc(-c2cncc(OC(C)C)c2)cc1)C1CCCC1 [Example 190, 3-(3-{[(2R)-2-cyclopentyl-2-{4-[5-(propan-2-yloxy)pyridin-3-yl]phenyl}acetyl]amino}-2-methylphenyl)propanoic acid]	36.1 nM
CCOc1cncc(-c2ccc(C(C(=O)Nc3cccc(CCC(=O)O)c3C)C3CCCCC3)cc2)c1 (racemic) [Example 67, (R/S) 3-[3-({Cyclohexyl[4-(5-ethoxypyridin-3-yl)phenyl]acetyl}amino)-2-methylphenyl]propanoic acid]	328 nM
CCc1cncc(-c2ccc(C(C(=O)Nc3cccc(C(CC)CC(=O)O)c3C)C3CCCC3)cc2F)c1 (single isomer, unassigned) [Example 195, 3-[3-({cyclopentyl[4-(5-ethylpyridin-3-yl)-3-fluorophenyl]acetyl}amino)-2-methylphenyl]pentanoic acid, Single Enantiomer]	10.5 nM
COc1ccc(-c2ccc(C(C(=O)Nc3cccc(CCC(=O)O)c3C)C3CCCC3)cc2)cn1 (racemic) [Example 18, (R/S) 3-[3-({Cyclopentyl[4-(6-methoxypyridin-3-yl)-phenyl]acetyl}amino)-2-methylphenyl]propanoic acid]	236 nM
Cc1ncc(-c2cc(F)c(C(C(=O)Nc3cccc(CCC(=O)O)c3C)C3CCCC3)cc2F)cc1Cl (racemic) [Example 180, (R/S) 3-[3-({[4-(5-chloro-6-methylpyridin-3-yl)-2,5-difluorophenyl](cyclopentyl)acetyl}amino)-2-methylphenyl]propanoic acid]	66.4 nM
Cc1c(NC(=O)[C@@H](c2ccc(-c3cncc(Cl)c3)cc2)C2CCCC2)cccc1C(O)CC(=O)O (stereo partly drawn) [Example 193, 3-[3-({(2R)-2-[4-(5-chloropyridin-3-yl)phenyl]-2-cyclopentylacetyl}amino)-2-methylphenyl]-3-hydroxypropanoic acid]	232 nM
Cc1c(CCC(=O)O)cccc1NC(=O)C(c1ccc(-c2cncc(F)c2)cc1)C1CCC1 (racemic) [Example 60, (R/S) 3-[3-({Cyclobutyl[4-(5-fluoropyridin-3-yl)phenyl]acetyl}amino)-2-methylphenyl]propanoic acid]	478 nM
Cc1ncc(-c2ccc([C@H](C(=O)Nc3cccc(CCC(=O)O)c3C)C3CCCC3)cc2)cc1C(F)(F)F [Example 192, 3-(3-{[(2R)-2-cyclopentyl-2-{4-[6-methyl-5-(trifluoromethyl)pyridin-3-yl]phenyl}acetyl]amino}-2-methylphenyl)propanoic acid]	13.5 nM
Cc1c(NC(=O)C(c2ccc(-c3cncc(C(F)(F)F)c3)cc2)C2CCCC2)cccc1C(CC(=O)O)C1CC1 (mixture of isomers) [Example 109, (3R/S)-3-(3-{[(2R/S)-2-cyclopentyl-2-{4-[5-(trifluoromethyl)pyridin-3-yl]phenyl}acetyl]amino}-2-methylphenyl)-3-cyclopropylpropanoic acid]	24.9 nM
Cc1ncc(-c2ccc([C@H](C(=O)Nc3ccc(F)c(CCC(=O)O)c3C)C3CCCC3)cc2)cc1Cl [Example 184, 3-[3-({(2R)-2-[4-(5-chloro-6-methylpyridin-3-yl)phenyl]-2-cyclopentylacetyl}amino)-6-fluoro-2-methylphenyl]propanoic acid]	23.7 nM
Cc1c(NC(=O)C(c2ccc(-c3cncc(C(F)(F)F)c3)c(F)c2)C2CCCC2)cccc1N(C)CC(=O)O (single isomer, unassigned; (-)) [Example 188, (−) N-{3-[(cyclopentyl{3-fluoro-4-[5-(trifluoromethyl)pyridin-3-yl]phenyl}acetyl)amino]-2-methylphenyl}-N-methylglycine, Single Enantiomer]	24.2 nM
Cc1c(NC(=O)C(c2ccc(-c3cncc(Cl)c3)c(F)c2)C2CCC2)cccc1C(C)CC(=O)O (centres unmarked) [Example 149]	52.1 nM
Cc1c(CCC(=O)O)cccc1NC(=O)C(c1ccc(-c2cncc(Cl)c2)cc1)C1CCCC1 (racemic) [Example 16, (R/S) 3-[3-({[4-(5-Chloropyridin-3-yl)phenyl](cyclopentyl)acetyl}amino)-2-methylphenyl]propanoic acid]	59.6 nM
Cc1c(NC(=O)C(c2ccc(-c3cncc(C(F)(F)F)c3)c(F)c2)C2CCCC2)cccc1C(C)CC(=O)O (single isomer, unassigned; stereoisomer 2) [Example 117, 3-{3-[(Cyclopentyl{3-fluoro-4-[5-(trifluoromethyl)pyridin-3-yl]phenyl}acetyl)amino]-2-methylphenyl}butanoic acid, Stereoisomer 2]	15.6 nM
Cc1c(NC(=O)C(c2ccc(-c3cncc(C(F)(F)F)c3)cc2)C2CCCC2)cccc1OCC(=O)O (single isomer, unassigned; (+)) [Example 35, (+) {3-[(Cyclopentyl{4-[5-(trifluoromethyl)pyridin-3-yl]phenyl}acetyl)amino]-2-methylphenoxy}acetic acid]	3730 nM
Cc1cc(-c2ccc(C(C(=O)Nc3cccc(CCC(=O)O)c3C)C3CCC3)cc2)cnc1C (racemic) [Example 59, (R/S) 3-[3-({Cyclobutyl[4-(5,6-dimethylpyridin-3-yl)phenyl]acetyl}amino)-2-methylphenyl]propanoic acid]	193 nM
Cc1ncc(-c2ccc(C(C(=O)Nc3cccc(CCC(=O)O)c3C)C3CCC3)cc2F)cc1C(F)(F)F (single isomer, unassigned; (-)) [Example 206, (−) 3-{3-[(cyclobutyl{3-fluoro-4-[6-methyl-5-(trifluoromethyl)pyridin-3-yl]phenyl}acetyl)amino]-2-methylphenyl}propanoic acid, Single Enantiomer]	10.1 nM

Source: US10172814B2, “Substituted pyridyl-cycloalkyl-carboxylic acids, compositions containing them and medical uses thereof” (BAYER PHARMA AKTIENGESELLSCHAFT, priority 2014, dated 2019)
